Data taken from ChEMBL document CHEMBL1145580, “Synthesis of diketopiperazine-based carboline homodimers and in vitro growth inhibition of human carcinomas” (2008).

Key:
Format in all cases: functional
PC-3 [1] = assay: Growth inhibition of human PC3 cells
PC-3 [2] = assay: Cytotoxicity against human PC3 cells assessed as cell survival at 10 uM relative to control; details: read-out: Activity
NCI-H520 [3] = assay: Growth inhibition of human NCI-H520 cells
PC-3 [4] = assay: Cytotoxicity against human PC3 cells assessed as cell survival at 100 uM relative to control; details: read-out: Activity
PC-3 [5] = assay: Cytotoxicity against human PC3 cells assessed as cell survival at 50 uM relative to control; details: read-out: Activity
NCI-H520 [6] = assay: Cytotoxicity against human NCI-H520 cells assessed as cell survival at 50 uM relative to control; details: read-out: Activity
NCI-H520 [7] = assay: Cytotoxicity against human NCI-H520 cells assessed as cell survival at 10 uM relative to control; details: read-out: Activity
NCI-H520 [8] = assay: Cytotoxicity against human NCI-H520 cells assessed as cell survival at 100 uM relative to control; details: read-out: Activity

| Compound | GI50 (PC-3 [1]) | viability at 10 µM (PC-3 [2]) | GI50 (NCI-H520 [3]) | viability at 100 µM (PC-3 [4]) | viability at 50 µM (PC-3 [5]) | viability at 50 µM (NCI-H520 [6]) | viability at 10 µM (NCI-H520 [7]) | viability at 100 µM (NCI-H520 [8]) |
| --- | --- | --- | --- | --- | --- | --- | --- | --- |
| COc1cc([C@@H]2c3cc4c(cc3[C@@H](O[C@@H]3O[C@@H]5CO[C@@H](C)O[C@H]5[C@H](O)[C@H]3O)[C@H]3COC(=O)[C@H]23)OCO4)cc(OC)c1O [ETOPOSIDE] | 12.5 µM | 73.8% | 13.5 µM | 30.8% | 41.2% | 35.2% | 78.6% | 21.3% |
| COc1cc([C@H]2c3[nH]c4ccccc4c3C[C@@H]3C(=O)N4[C@@H](c5cc(OC)c(O)c(OC)c5)c5[nH]c6ccccc6c5C[C@@H]4C(=O)N23)cc(OC)c1O | 55.3 µM | > 100% | 61.5 µM | 15.7% | 43.6% | 53.2% | 88.7% | 26.8% |
| COc1cc([C@H]2c3[nH]c4ccccc4c3C[C@@H]3C(=O)N4[C@@H](c5cc(OC)c(OCc6ccccc6)c(OC)c5)c5[nH]c6ccccc6c5C[C@@H]4C(=O)N23)cc(OC)c1OCc1ccccc1 | – | > 100% | – | 65.1% | 92.7% | > 100% | > 100% | 84.5% |
| COc1cc([C@H]2c3[nH]c4ccccc4c3C[C@@H]3C(=O)N4[C@@H](c5cc(OC)c(OC)c(OC)c5)c5[nH]c6ccccc6c5C[C@@H]4C(=O)N23)cc(OC)c1OC | – | > 100% | – | 77.4% | > 100% | 98.9% | 99.8% | 98.9% |
| COc1cc([C@@H]2c3[nH]c4ccccc4c3C[C@H]3C(=O)N4[C@H](c5cc(OC)c(O)c(OC)c5)c5[nH]c6ccccc6c5C[C@H]4C(=O)N23)cc(OC)c1O | 21.9 µM | 80.7% | 21.5 µM | 1.6% | 3.3% | 16.5% | 67.3% | 5.8% |
| CC(C)=CCc1[nH]c2ccccc2c1C[C@@H]1NC(=O)[C@H]2CCCN2C1=O | 12.3 µM | – | – | – | – | – | – | – |
| COc1cc([C@@H]2c3[nH]c4ccccc4c3C[C@H]3C(=O)N4[C@H](c5cc(OC)c(OC)c(OC)c5)c5[nH]c6ccccc6c5C[C@H]4C(=O)N23)cc(OC)c1OC | – | 93% | – | 65% | 80.5% | 90.8% | 90.3% | 86.7% |
| COc1cc([C@@H]2c3[nH]c4ccccc4c3C[C@H]3C(=O)N4[C@H](c5cc(OC)c(OCc6ccccc6)c(OC)c5)c5[nH]c6ccccc6c5C[C@H]4C(=O)N23)cc(OC)c1OCc1ccccc1 | – | 98.2% | – | 54.5% | 68.8% | 81.3% | 88.1% | 81% |
